These results are taken from patent US4514414A, “N-Substituted pyrrolidineacetic acids and their esters” (Smithkline Beckman Corporation, priority 1982, dated 1985).

The experiment concerns GABA uptake by a crude synaptosomal fraction (P2) of the rat brain. In words: Inhibition of 3H-GABA uptake by crude synaptosomal fraction (P2) of rat brain. It counts as biochemical. The settings on record: rat brain P2 synaptosomal suspension, 37° C., 15 minutes preincubation, 1 μM 3H-GABA, incubation time 3 minutes; read-out: IC50 (concentration producing a 50% inhibition of GABA accumulation). On the procedure:
The inhibition of GABA uptake produced by the compounds of this invention is measured by the ability of the active medicament to inhibit ^3 H-GABA uptake by a crude synaptosomal fraction (P2) of the rat brain. In this test system, aliquots of the P2 suspension are preincubated in a buffered physiological medium at 37° C. in the presence of test compound for 15 minutes. Uptake is initiated by the addition of ^3 H-GABA to a final concentration of 1 μM and terminated by filtration through a 0.45 um Millipore filter. Incubation time is 3 minutes. A compound producing a 50% or greater inhibition of GABA uptake at concentrations of 10 μM is considered to show biosignificant activity. The IC50 value is the concentration of a compound producing a 50% inhibition of GABA accumulation.

Each structure is given as a SMILES string.

Regarding `O=C(O)CC1CCN(CCC=C(c2ccccc2)c2ccccc2)C1` (stereo not shown) [1-(4,4-diphenyl-3-butenyl)-3-pyrrolidineacetic acid], the IC50 turned out to be 121 nM.
